Reference: PubChem BioAssay AID651642 (Sanford-Burnham Center for Chemical Genomics, 2012)

How the values were obtained:
H9c2 = assay: protection of cardiomyocytes from stress damage, SAR follow-up, cell-based, panel, H9c2 and HL-1, H2O2, 2-deoxyglucose, ATP luminescence (AID 651642)
HL-1 = assay: as above
[1] = H9c2/HL-1 cardiomyocyte 2-deoxyglucose damage, mean of runs, with 2-deoxyglucose, mean IC50 across panel
[2] = H9c2/HL-1 cardiomyocyte 2-deoxyglucose damage, run 1, with 2-deoxyglucose
[3] = H9c2/HL-1 cardiomyocyte 2-deoxyglucose damage, run 2, with 2-deoxyglucose
[4] = H9c2/HL-1 cardiomyocyte 2-deoxyglucose damage, run 3, with 2-deoxyglucose
[5] = H9c2/HL-1 cardiomyocyte 2-deoxyglucose damage, run 4, with 2-deoxyglucose
[6] = H9c2/HL-1 cardiomyocyte H2O2 oxidative damage, mean of runs, with H2O2, mean IC50 across panel
[7] = H9c2/HL-1 cardiomyocyte H2O2 oxidative damage, run 1, with H2O2
[8] = H9c2/HL-1 cardiomyocyte H2O2 oxidative damage, run 2, with H2O2
[9] = H9c2/HL-1 cardiomyocyte H2O2 oxidative damage, run 3, with H2O2
[10] = H9c2/HL-1 cardiomyocyte H2O2 oxidative damage, run 4, with H2O2

| SMILES | IC50 (H9c2; [1]) [µM] | IC50 (H9c2; [2]) [µM] | IC50 (H9c2; [3]) [µM] | IC50 (H9c2; [4]) [µM] | IC50 (H9c2; [5]) [µM] | IC50 (H9c2; [6]) [µM] | IC50 (H9c2; [7]) [µM] | IC50 (H9c2; [8]) [µM] | IC50 (H9c2; [9]) [µM] | IC50 (H9c2; [10]) [µM] | IC50 (HL-1; [1]) [µM] | IC50 (HL-1; [2]) [µM] | IC50 (HL-1; [3]) [µM] | IC50 (HL-1; [4]) [µM] | IC50 (HL-1; [5]) [µM] | IC50 (HL-1; [6]) [µM] | IC50 (HL-1; [7]) [µM] | IC50 (HL-1; [8]) [µM] | IC50 (HL-1; [9]) [µM] | IC50 (HL-1; [10]) [µM] |
| --- | --- | --- | --- | --- | --- | --- | --- | --- | --- | --- | --- | --- | --- | --- | --- | --- | --- | --- | --- | --- |
| COc1cc(-c2cc(C(=O)NCC(=O)Nc3cccc(C(C)=O)c3)c3ccccc3n2)cc(OC)c1OC | 8.19 | 9.43 | 9.75 | 6.11 | 7.46 | 1.61 | 1.67 | 2.65 | 0.99 | 1.13 | 6.18 | 2.77 | 3.2 | 8.97 | 9.78 | 6.32 | 4.49 | 9.07 | 4.55 | 7.16 |
| COc1cc(-c2cc(C(=O)Nc3cccc(C(=O)O)c3)c3ccccc3n2)cc(OC)c1OC | > 79 | > 79 | > 79 | > 79 | > 79 | > 79 | > 79 | > 79 | > 79 | > 79 | > 79 | > 79 | > 79 | > 79 | > 79 | > 79 | > 79 | > 79 | > 79 | > 79 |
| COc1cc(-c2cc(C(=O)NCC(=O)Nc3cccc(C(C)=O)c3)c3cc(Br)ccc3n2)cc(OC)c1OC | 6.44 | 8.22 | 8.41 | 4.43 | 4.71 | 1.26 | 1.48 | 1.49 | 1.02 | 1.06 | 3.83 | 2.44 | 4.64 | 3.4 | 4.85 | 3.34 | 3.56 | 3.69 | 2.7 | 3.41 |
| CCOC(=O)c1cccc(NC(=O)CNC(=O)c2cc(-c3cc(OC)c(OC)c(OC)c3)nc3ccc(Br)cc23)c1 | 4.52 | 4.66 | 6.47 | 3.26 | 3.71 | 1.34 | 1.44 | 1.74 | 0.953 | 1.24 | 1.87 | 1.25 | 1.42 | 1.96 | 2.86 | 2.04 | 2.32 | 2.54 | 1.26 | 2.05 |
| COc1ccc2c(c1OC)C(=O)N1c3ccccc3C(=O)N(Cc3ccccn3)C21 (stereo not given) | > 79 | > 79 | > 79 | > 79 | > 79 | – | 7.56 | 10.3 | > 79 | > 79 | > 79 | > 79 | > 79 | > 79 | > 79 | > 79 | > 79 | > 79 | > 79 | > 79 |
| CCOC(=O)c1cccc(NC(=O)c2cc(-c3cc(OC)c(OC)c(OC)c3)nc3ccc(C)cc23)c1 | > 79 | > 79 | > 79 | > 79 | > 79 | 2.96 | 2.98 | 3.24 | 2.59 | 3.01 | – | 2.03 | 2.12 | > 79 | > 79 | – | > 79 | 2.63 | 1.79 | 2.94 |
| COC(=O)CNC(=O)c1cc(-c2cc(OC)c(OC)c(OC)c2)nc2ccccc12 | > 79 | > 79 | > 79 | > 79 | > 79 | – | > 79 | 39.1 | > 79 | > 79 | > 79 | > 79 | > 79 | > 79 | > 79 | – | > 79 | 41.2 | > 79 | > 79 |
| COc1cc(-c2cc(C(=O)Nc3cccc(C(C)=O)c3)c3ccccc3n2)cc(OC)c1OC | > 79 | > 79 | > 79 | > 79 | > 79 | – | 3.74 | 4.04 | > 79 | 3.69 | 8.62 | 5.68 | 6.27 | 8.63 | 13.9 | 7.06 | 5.59 | 5.68 | 6.71 | 10.3 |
| COc1ccc2c(c1OC)C(=O)N1c3ccccc3C(=O)N(Cc3cccc(Cl)c3Cl)C21 (stereo not given) | 8.9 | 9.42 | 12.2 | 6.65 | 7.38 | – | 0.447 | 0.739 | > 79 | > 79 | 1.48 | 0.792 | 0.807 | 1.98 | 2.35 | > 79 | > 79 | > 79 | > 79 | > 79 |
| COc1cc(-c2cc(C(=O)Nc3cccc(C(C)=O)c3)c3cccc(Cl)c3n2)cc(OC)c1OC | > 79 | > 79 | > 79 | > 79 | > 79 | > 79 | > 79 | > 79 | > 79 | > 79 | > 79 | > 79 | > 79 | > 79 | > 79 | – | > 79 | > 79 | 2 | 2.5 |
| COc1cc(-c2cc(C(=O)NCC(=O)Nc3ccc(C(C)=O)cc3)c3cc(C)ccc3n2)cc(OC)c1OC | 5.83 | 6.75 | 8.1 | 3.5 | 4.96 | 1.67 | 2.04 | 2.05 | 1.09 | 1.49 | 4.22 | 2.65 | 2.65 | 5.75 | 5.85 | 3.93 | 3.02 | 3.88 | 3.17 | 5.63 |
| COc1cc(-c2cc(C(=O)NCC(=O)O)c3ccccc3n2)cc(OC)c1OC | > 79 | > 79 | > 79 | > 79 | > 79 | – | > 79 | > 79 | > 79 | > 79 | > 79 | > 79 | > 79 | > 79 | > 79 | > 79 | > 79 | > 79 | > 79 | > 79 |
| CCOC(=O)c1cccc(NC(=O)c2cc(-c3cc(OC)c(OC)c(OC)c3)nc3ccccc23)c1 | > 79 | > 79 | > 79 | > 79 | > 79 | – | 3.9 | 4.44 | > 79 | > 79 | – | 3.23 | 3.46 | > 79 | > 79 | 4.62 | 3.4 | 4.59 | 3.78 | 6.72 |
| COc1ccc2c(c1OC)C(=O)N1c3ccccc3C(=O)N(Cc3ccccc3)C21 (stereo not given) | – | 44.9 | 49.1 | > 79 | > 79 | – | 3.56 | 4.07 | > 79 | > 79 | 10.2 | 3.57 | 4.36 | 13.8 | 18.9 | > 79 | > 79 | > 79 | > 79 | > 79 |
| COc1ccc(NC(=O)CNC(=O)c2cc(-c3cc(OC)c(OC)c(OC)c3)nc3ccccc23)cc1 | 12.8 | 13.8 | 15.2 | 10.4 | 12 | – | 3.97 | 4.53 | > 79 | > 79 | 6.65 | 4.04 | 4.29 | 8.55 | 9.7 | 7.15 | 5.04 | 8.88 | 7 | 7.7 |
| COc1cc(-c2cc(C(=O)Nc3cccc(C(=O)NCc4ccccc4)c3)c3ccccc3n2)cc(OC)c1OC | 3.38 | 3.81 | 4.57 | 2.32 | 2.81 | 1.13 | 1.54 | 1.62 | 0.678 | 0.686 | 1.36 | 0.74 | 0.813 | 1.85 | 2.05 | 3.33 | 1.7 | 2.25 | 2.4 | 6.96 |
| COc1ccc2c(c1OC)C(=O)N1c3ccccc3C(=O)N(Cc3ccc(F)cc3)C21 (stereo not given) | > 79 | > 79 | > 79 | > 79 | > 79 | – | > 79 | 8.03 | > 79 | > 79 | 19 | 6.14 | 10.7 | 17.7 | 41.3 | > 79 | > 79 | > 79 | > 79 | > 79 |
